Assay type in all cases: functional, Mus musculus
In assay [1] the test system is M109. As to the kind of experiment: In vivo antitumor activity in M109 (Murine lung carcinoma cells) tumor model after (ip) administration on days 1, 5,and 9 at dose of 100 mg/kg/injection.
The test system of assay [2] is M109. As to the kind of experiment: In vivo antitumor activity of the taxol was determined in M109 (Murine lung carcinoma cells) tumor model after (ip) administration in 10% Tween 80 in saline on days1, 5, and 9 at a dose of 30 mg/kg/injection in presence of Taxol.
Assay [3] deals with M109. The assay can be described thus: In vivo antitumor activity in M109 (Murine lung carcinoma cells) tumor model after (ip) administration on days 5 and 8 at dose of 140 mg/kg/injection.
Assay [4] relates to M109. As to the kind of experiment: In vivo antitumor activity of the taxol was determined in M109 (Murine lung carcinoma cells) tumor model after (ip) administration in 10% Tween 80 in saline on days 5 and 8 at dose of 40 mg/kg/injection in presence of Taxol.
Assay [5] has as its system M109. As to the kind of experiment: In vivo antitumor activity in M109 (Murine lung carcinoma cells) tumor model after (ip) administration on days 5 and 8 at dose of 70 mg/kg/injection.

What is called T/C is the ratio of treated to control. On to `CC(=O)O[C@H]1C(=O)[C@@]2(C)[C@H]([C@H](OC(=O)c3ccccc3)[C@]3(O)C[C@H](OC(=O)[C@H](OC(=O)CC(C)(C)c4c(C)cc(C)cc4OP(=O)([O-])[O-])[C@@H](NC(=O)c4ccccc4)c4ccccc4)C(C)=C1C3(C)C)[C@]1(OC(C)=O)CO[C@@H]1C[C@@H]2O.[Na+].[Na+]`, for which the values for the T/C with M109 [1] and in the assay with M109 [2] were 144% and 275%, respectively.
As to `CC(=O)O[C@H]1C(=O)[C@]2(C)[C@@H](OC(=O)CC(C)(C)c3c(C)cc(C)cc3OP(=O)([O-])[O-])C[C@H]3OC[C@@]3(OC(C)=O)[C@H]2[C@H](OC(=O)c2ccccc2)[C@]2(O)C[C@H](OC(=O)[C@H](O)[C@@H](NC(=O)c3ccccc3)c3ccccc3)C(C)=C1C2(C)C.[Na+].[Na+]`, the T/C with M109 [3] is reported as 156%; in the assay on M109 [4], 144%; with M109 [5], 153%.

Values taken from ChEMBL document CHEMBL1126541, “Novel water soluble phosphate prodrugs of taxol possessing in vivo antitumor activity” (1993).
